Experimental data published in patent US10316028B2, “Orexin receptor antagonists” (Heptares Therapeutics Limited, priority 2012, dated 2019).

Target: T1, human Orexin-2 receptor (Homo sapiens, UniProt O43614)
T1 construct: expressed in transfected cells; host or cells: HEK293 cells (transient transfection, Genejuice); membranes
T1 sequence (O43614 1-444): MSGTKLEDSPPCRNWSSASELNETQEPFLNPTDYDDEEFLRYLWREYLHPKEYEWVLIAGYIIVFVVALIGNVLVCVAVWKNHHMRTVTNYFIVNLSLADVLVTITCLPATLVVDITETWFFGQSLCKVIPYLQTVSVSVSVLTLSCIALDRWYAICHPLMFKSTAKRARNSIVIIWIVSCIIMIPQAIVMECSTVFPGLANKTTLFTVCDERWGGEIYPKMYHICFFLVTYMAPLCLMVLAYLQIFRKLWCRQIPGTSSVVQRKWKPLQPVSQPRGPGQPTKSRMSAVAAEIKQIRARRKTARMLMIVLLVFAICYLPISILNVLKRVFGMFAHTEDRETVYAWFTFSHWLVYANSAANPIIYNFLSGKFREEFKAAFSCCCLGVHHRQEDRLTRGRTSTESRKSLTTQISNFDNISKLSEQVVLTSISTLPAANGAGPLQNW
Assay: 3H-EMPA radioligand binding assay
Conditions: 3H-EMPA displacement, membranes of HEK293 cells transfected with human Orexin-2 receptor; KI by Cheng-Prussoff; read-out: OX2 pKi ave (converted)
Method in brief: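 Membranes from HEK293 cells transiently transfected with human orexin-2 receptor cDNA, assayed with [3H]EMPA. Bound ligand collected on PEI-treated GF/B filters and counted by scintillation; IC50 from inhibition curves, Ki by Cheng-Prusoff.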

SMILES	Ki [nM]
CCn1cc(N2C(=O)N(Cc3c(F)cccc3Cl)c3ccccc3S2(=O)=O)cn1 [Example 150, 4-(2-Chloro-6-fluorobenzyl)-2-(1-ethyl-1H-pyrazol-4-yl)-2H-1,2,4-benzothiadiazin-3(4H)-one 1,1-dioxide]	17.4
CSc1cncc(N2C(=O)N(Cc3c(F)cccc3Cl)c3ccccc3S2(=O)=O)c1 [Example 151, 4-(2-Chloro-6-fluorobenzyl)-2-[5-(methylsulfanyl)pyridin-3-yl]-2H-1,2,4-benzothiadiazin-3(4H)-one 1,1-dioxide]	2
CSc1cncc(N2C(=O)N(Cc3c(F)cc(F)cc3F)c3ccccc3S2(=O)=O)c1 [Example 152, 2-[5-(Methylsulfanyl)pyridin-3-yl]-4-(2,4,6-trifluorobenzyl)-2H-1,2,4-benzothiadiazin-3(4H)-one 1,1-dioxide]	5.89
COc1cc(F)c(CN2C(=O)N(c3ccc(OC)c(OC)n3)S(=O)(=O)c3ccccc32)c(F)c1 [Example 153, 4-(2,6-Difluoro-4-methoxybenzyl)-2-(5,6-dimethoxypyridin-2-yl)-2H-1,2,4-benzothiadiazin-3(4H)-one 1,1-dioxide]	0.224
COc1cc(F)c(CN2C(=O)N(c3ccc(OC)nc3)S(=O)(=O)c3ccccc32)c(Cl)c1 [Example 154, 4-(2-Chloro-6-fluoro-4-methoxybenzyl)-2-(6-methoxypyridin-3-yl)-2H-1,2,4-benzothiadiazin-3(4H)-one 1,1-dioxide]	3.02
COc1cc(N2C(=O)N(Cc3c(F)cc(F)cc3Cl)c3ccccc3S2(=O)=O)cnc1OC [Example 155, 4-(2-Chloro-4,6-difluorobenzyl)-2-(5,6-dimethoxypyridin-3-yl)-2H-1,2,4-benzothiadiazin-3(4H)-one 1,1-dioxide]	1.74
O=C1N(Cc2c(F)cc(F)cc2F)c2ccccc2S(=O)(=O)N1Cc1cc(=O)[nH]c2ccccc12 [Example 156, 4-(2,4,6-Trifluorobenzyl)-2-[(2-oxo-1,2-dihydroquinolin-4-yl)methyl]-2H-1,2,4-benzothiadiazin-3(4H)-one 1,1-dioxide]	11.2
COc1cc(N2C(=O)N(Cc3c(F)cc(F)cc3Cl)c3ccccc3S2(=O)=O)cc(OC)n1 [Example 157, 4-(2-Chloro-4,6-difluorobenzyl)-2-(2,6-dimethoxypyridin-4-yl)-2H-1,2,4-benzothiadiazin-3(4H)-one 1,1-dioxide]	0.575
CN(C)c1cccc(N2C(=O)N(Cc3c(F)cc(F)cc3F)c3ccccc3S2(=O)=O)n1 [Example 158, 2-[6-(Dimethylamino)pyridin-2-yl]-4-(2,4,6-trifluorobenzyl)-2H-1,2,4-benzothiadiazin-3(4H)-one 1,1-dioxide]	3.39
CN(C)c1cc(N2C(=O)N(Cc3c(F)cc(F)cc3F)c3ccccc3S2(=O)=O)ccn1 [Example 159, 2-[2-(Dimethylamino)pyridin-4-yl]-4-(2,4,6-trifluorobenzyl)-2H-1,2,4-benzothiadiazin-3(4H)-one 1,1-dioxide]	3.09
CSc1ccc(N2C(=O)N(Cc3c(F)cc(F)cc3F)c3ccccc3S2(=O)=O)cn1 [Example 160, 2-[6-(Methylsulfanyl)pyridin-3-yl]-4-(2,4,6-trifluorobenzyl)-2H-1,2,4-benzothiadiazin-3(4H)-one 1,1-dioxide]	17.4
COc1ccc(N2C(=O)N(Cc3c(F)cc(F)cc3Cl)c3ccccc3S2(=O)=O)nc1OC [Example 161, 4-(2-Chloro-4,6-difluorobenzyl)-2-(5,6-dimethoxypyridin-2-yl)-2H-1,2,4-benzothiadiazin-3(4H)-one 1,1-dioxide]	1.26
COc1cc(N2C(=O)N(Cc3ncc(F)cc3C)c3ccccc3S2(=O)=O)cc(OC)n1 [Example 162, 2-(2,6-Dimethoxypyridin-4-yl)-4-[(5-fluoro-3-methylpyridin-2-yl)methyl]-2H-1,2,4-benzothiadiazin-3(4H)-one 1,1-dioxide]	18.6
COc1cc(F)c(CN2C(=O)N(c3cc(OC)nc(OC)c3)S(=O)(=O)c3cccnc32)c(F)c1 [Example 163, 4-(2,6-Difluoro-4-methoxybenzyl)-2-(2,6-dimethoxypyridin-4-yl)-2H-pyrido[2,3-e][1,2,4]thiadiazin-3(4H)-one 1,1-dioxide]	1.38
COc1cc(F)c(CN2C(=O)N(c3ccc(OC)c(OC)n3)S(=O)(=O)c3cccnc32)c(F)c1 [Example 164, 4-(2,6-Difluoro-4-methoxybenzyl)-2-(5,6-dimethoxypyridin-2-yl)-2H-pyrido[2,3-e][1,2,4]thiadiazin-3(4H)-one 1,1-dioxide]	0.661
COc1cc(F)c(CN2C(=O)N(c3cnc(OC)c(OC)c3)S(=O)(=O)c3cccnc32)c(F)c1 [Example 165, 4-(2,6-Difluoro-4-methoxybenzyl)-2-(5,6-dimethoxypyridin-3-yl)-2H-pyrido[2,3-e][1,2,4]thiadiazin-3(4H)-one 1,1-dioxide]	0.676
COc1cc(N2C(=O)N(Cc3c(F)cccc3Cl)c3ccccc3S2(=O)=O)cc(OC)n1 [Example 166, 4-(2-Chloro-6-fluorobenzyl)-2-(2,6-dimethoxypyridin-4-yl)-2H-1,2,4-benzothiadiazin-3(4H)-one 1,1-dioxide]	2.69
COc1cc(N2C(=O)N(Cc3c(F)cccc3F)c3ccccc3S2(=O)=O)cc(OC)n1 [Example 167, 4-(2,6-Difluorobenzyl)-2-(2,6-dimethoxypyridin-4-yl)-2H-1,2,4-benzothiadiazin-3(4H)-one 1,1-dioxide]	2.19
COc1ccc(N2C(=O)N(Cc3c(F)cccc3Cl)c3ncccc3S2(=O)=O)nc1OC [Example 168, 4-(2-Chloro-6-fluorobenzyl)-2-(5,6-dimethoxypyridin-2-yl)-2H-pyrido[2,3-e][1,2,4]thiadiazin-3(4H)-one 1,1-dioxide]	1.23
COc1ccc(N2C(=O)N(Cc3c(F)cccc3F)c3ncccc3S2(=O)=O)nc1OC [Example 169, 4-(2,-Difluorobenzyl)-2-(5,6-dimethoxypyridin-2-yl)-2H-pyrido[2,3-e][1,2,4]thiadiazin-3(4H)-one 1,1-dioxide]	0.851
COc1cnc(N2C(=O)N(Cc3c(F)cc(F)cc3F)c3ccccc3S2(=O)=O)nc1OC [Example 170, 2-(4,5-dimethoxypyrimidin-2-yl)-4-(2,4,6-trifluorobenzyl)-2H-1,2,4-benzothiadiazin-3(4H)-one 1,1-dioxide]	7.24
COc1cc(F)c(CN2C(=O)N(c3cnc(OC)c(C)c3)S(=O)(=O)c3ccccc32)c(F)c1 [Example 171, 4-(2,6-difluoro-4-methoxybenzyl)-2-(6-methoxy-5-methylpyridin-3-yl)-2H-1,2,4-benzothiadiazin-3(4H)-one 1,1-dioxide]	1.78
CNc1ccc(N2C(=O)N(Cc3c(F)cc(F)cc3F)c3ncccc3S2(=O)=O)nc1OC [Example 172, 2-[6-methoxy-5-(methylamino)pyridin-2-yl]-4-(2,4,6-trifluorobenzyl)-2H-pyrido[2,3-e][1,2,4]thiadiazin-3(4H)-one 1,1-dioxide]	7.76
COc1cc(F)c(CN2C(=O)N(c3ccc(C)c(C)n3)S(=O)(=O)c3cccnc32)c(F)c1 [Example 173, 4-(2,6-Difluoro-4-methoxybenzyl)-2-(5,6-dimethylpyridin-2-yl)-2H-pyrido[2,3-e][1,2,4]thiadiazin-3(4H)-one 1,1-dioxide]	2.4
COc1cc(F)c(CN2C(=O)N(c3cc(C)cc(C)n3)S(=O)(=O)c3cccnc32)c(F)c1 [Example 174, 4-(2,6-Difluoro-4-methoxybenzyl)-2-(4,6-dimethylpyridin-2-yl)-2H-pyrido[2,3-e][1,2,4]thiadiazin-3(4H)-one 1,1-dioxide]	7.24
COc1cc(F)c(CN2C(=O)N(c3ccc(C)c(OC)n3)S(=O)(=O)c3cccnc32)c(F)c1 [Example 175, 4-(2,6-Difluoro-4-methoxybenzyl)-2-(6-methoxy-5-methylpyridin-2-yl)-2H-pyrido[2,3-e][1,2,4]thiadiazin-3(4H)-one 1,1-dioxide]	1.35
COc1cc(N2C(=O)N(Cc3c(F)cc(F)cc3F)c3ncccc3S2(=O)=O)cnc1C [Example 176, 2-(5-Methoxy-6-methylpyridin-3-yl)-4-(2,4,6-trifluorobenzyl)-2H-pyrido[2,3-e][1,2,4]thiadiazin-3(4H)-one 1,1-dioxide]	6.46
CNc1ncc(N2C(=O)N(Cc3c(F)cc(OC)cc3F)c3ncccc3S2(=O)=O)cc1OC [Example 177, 2-[5-Methoxy-6-(methylamino)pyridin-3-yl]-4-(2,6-difluoro-4-methoxybenzyl)-2H-pyrido[2,3-e][1,2,4]thiadiazin-3(4H)-one 1,1-dioxide]	2.19
COc1cc(F)c(CN2C(=O)N(c3cnc(C)c(C)c3)S(=O)(=O)c3ccccc32)c(F)c1 [Example 178, 4-(2,6-difluoro-4-methoxybenzyl)-2-(5,6-dimethylpyridin-3-yl)-2H-1,2,4-benzothiadiazin-3(4H)-one 1,1-dioxide]	4.37
CNc1nc(N2C(=O)N(Cc3c(F)cc(OC)cc3F)c3ccccc3S2(=O)=O)ccc1OC [Example 179, 4-(2,6-difluoro-4-methoxybenzyl)-2-[5-methoxy-6-(methylamino)pyridin-2-yl]-2H-1,2,4-benzothiadiazin-3(4H)-one 1,1-dioxide]	3.72
